One assay addresses T1, elastase (Homo sapiens, UniProt P08246).
T1 construct: fresh, heparinised human whole blood; endogenous in cells; host or cells: leukocytes (neutrophils) of fresh heparinised human whole blood
T1 sequence (P08246 30-267): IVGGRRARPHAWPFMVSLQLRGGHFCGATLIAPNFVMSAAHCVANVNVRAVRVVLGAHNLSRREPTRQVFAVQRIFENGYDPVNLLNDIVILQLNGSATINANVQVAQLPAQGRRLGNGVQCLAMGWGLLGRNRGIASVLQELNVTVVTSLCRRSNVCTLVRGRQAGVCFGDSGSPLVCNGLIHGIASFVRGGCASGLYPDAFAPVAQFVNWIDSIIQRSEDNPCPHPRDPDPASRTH
The experiment in a line: Human whole blood elastase inhibition assay. Type of assay: cell-based. Conditions: heparinised, 30 minutes at 37° C. The procedure:
Human whole blood elastase inhibition assay
Triplicate aliquots of fresh, heparinised human whole blood (200 μl) are added to appropriately diluted samples (10 μl) of compounds under test. […] Samples are mixed thoroughly by pipette, and are then incubated for 30 minutes at 37° C. Cold red cell lysis buffer (750 μl of 155 mM ammonium chloride, 0.12 mM EDTA, 10 mM potassium bicarbonate, pH 7.4) is then added. Tubes are capped, inverted several times, and maintained at 4° C. for 15 minutes, inverting every 5 minutes. After centrifugation at 250 g for 10 minutes, at 4° C., the resulting pelleted cells are washed. The wash is with saline (300 μl), followed by centrifugation at 100 g for 10 minutes at 4° C. Pellets are washed twice more, before resuspension of the final cell pellet in buffer (200 μl of 100 mM Tris, 300 mM NaCl, 1% (w/v) HTAB, pH 8.6). Samples are stored at -20° C. After freeze-thawing of the samples four times, elastase activity is determined by a calorimetric assay in 50 mM Tris, 150 mM NaCl, 0.6 mM MeO-Succ-Ala-Ala-Ala-Pro-Val-pNA at pH 8.6, measuring the rate of increase in absorbance at 405 nm.

The target in assay [1] is T2, human neutrophil elastase (Homo sapiens, UniProt P08246).
T2 sequence (P08246 30-267): T1 sequence (P08246 30-267)
The assay can be described thus: In vitro assay of human neutrophil elastase. Type of assay: biochemical. Conditions: in vitro elastase test; purified human neutrophil elastase 11.8 nM, pH 8.6, 15 min at 30° C., 0.6 mM MeO-succinyl-alanyl-alanyl-prolyl-valyl-p-nitroanilide. As for the experimental part: In vitro assays of human neutrophil elastase Assay contents: 50 mM Tris/HCl (pH 8.6) 150 mM NaCl 11.8 nM purified human neutrophil elastase Suitable concentrations of compound under test diluted with water from a 10 mM stock solution in dimethylsulphoxide. Values above are final concentrations after the addition of substrate solution (see below). The mixture above is incubated for fifteen minutes at 30° C. at which time the remaining elastase activity is measured for 10 minutes in a BioTek 340i plate-reader, after the addition of 0.6 mM MeO-succinyl-alanyl-alanyl-prolyl-valyl-p-nitroanilide. The rate of increase in absorbance at 405 nm is proportional to elastase activity. Enzyme activity is plotted against concentration of inhibitor and an IC50 determined using curve fitting software.

In a further assay the test system is intracellular elastase. The experiment in a line: Oral in vivo hamster model using IL-8 induced lung infiltrates for assessment of intracellular elastase inhibition. Conditions: in vivo hamster IL-8 test, at a dose of less than 10 mg/kg. The procedure:
In vivo activity of inhibitors of human neutrophil elastase:
An oral in vivo model using IL-8 induced lung infiltrates for the assessment of intracellular elastase inhibition
Adult hamsters (100-150 g) are randomised into groups (n=4) and fasted overnight. Under gaseous anaesthetic (3% isofluorane) animals are dosed orally with 1 mL/100 g water as vehicle or containing predissolved compounds. Either at the same time, or subsequently under anaesthetic, animals are dosed intratracheally with 1 ug recombinant human IL-8 in 100 uL sterile saline. Six hours after IL-8 dosing animals are sacrificed using intraperitoneal pentobarbitone. The lungs are lavaged with 2×2.5 mL sterile saline and femurs are removed by dissection.
Intracellular elastase is prepared from neutrophils collected by lavage and from femoral bone marrow. This is achieved by sonication of the neutrophils and centrifugation to yield intracellular granules. These are disrupted by freeze/thawing and sonication. Elastase and myeloperoxidase assays are then performed on these samples to assess the efficacy of the compounds and to normalise for neutrophil recovery.

pIC50: −log10 of the molar value. Counter-ions that a name gives are not always drawn.

With `CC(C)[C@H]1C(=O)N(S(C)(=O)=O)[C@H]2CCN(C(=O)C3CN(CC4CC4)C3)[C@H]12` (relative stereo) [Example 1, rel-(3R,3aR,6aS)-4-(1-CyclopropyImethyl-azetidine-3carbonyl)-3-isopropyl-1-methanesulfonyl-hexahydropyrrolo[3,2-b]pyrrol-2-one hydrochloride], the pIC50 is 5.27 on elastase and 6.71 in assay [1].

For the compound `CCCCN1CC(C(=O)N2CC[C@H]3[C@H]2[C@@H](C(C)C)C(=O)N3S(C)(=O)=O)C1` (relative stereo) [Example 5, rel-(3R,3aR,6aS)-4-(1-Butyazetidine-3-carbonyl)-3-isopropyl-1-methanesulfonyl-hexahydro-pyrrolo[3,2-b]pyrrol-2-one hydrochloride], the pIC50 is 5.77 against elastase and 7.03 in assay [1]. For `CC(C)[C@H]1C(=O)N(S(C)(=O)=O)[C@H]2CCN(C(=O)C3CN(Cc4ccccc4)C3)[C@H]12` (relative stereo) [Example 2, rel-(3R,3aR,6aS)-4-(1-Benzylazetidine-3-carbonyl)-3-isopropyl-1-methanesulfonyl-hexahydro-pyrrolo[3,2-b]pyrrol-2-one hydrochloride], in that order: 6.09 and 6.64.

Take `CC(C)[C@H]1C(=O)N(S(C)(=O)=O)[C@H]2CCN(C(=O)C3CN(CC(C)(C)C)C3)[C@H]12.Cl` (relative stereo) [Example 3, rel-(3R,3aR,6aS)-4-[1-(2,2-Dimethyl-propyl)-azetidine-3-carbonyl]-3-isopropyl-1-methanesulfonyl-hexahydro-pyrrolo[3,2-b]pyrrol-2-one hydrochloride]: the duration of action result with intracellular elastase is on record as “at least 6 hours”. `CC(C)[C@H]1C(=O)N(S(C)(=O)=O)[C@H]2CCN(C(=O)C3CN(Cc4c(Cl)cccc4Cl)C3)[C@H]12` (relative stereo) [Example 4, rel-(3R,3aR,6aS)-4-[1-(2,6-Dichloro-benzyl)-azetidine-3-carbonyl]-3-isopropyl-1-methanesulfonyl-hexahydropyrrolo[3,2-b]pyrrol-2-one hydrochloride]: the pIC50 was 5.92 against elastase and 6.68 in assay [1].
